According to US4258199A, “Method for preparing cyclic ethers and thioethers including oxygen isomers and sulfur analogs of prostacyclin” (Research Corporation, priority 1978, dated 1981):
Counter-ions that a name gives are not always drawn.

Tests used:
[1] = half-life in saline / stability in solution (Table 1); assay type: physicochemical; details: 250° C. (so in the source); for half-life: read-out: t 1/2 saline
Excerpt: The removal of the protecting groups R^1, R^2 and R^3 from the resulting products of the oxidation, i.e, the allylic oxygen cyclic ethers or sulfones or the vinylic sulfoxides, or sulfones, can be carried out with acid or base or sequentially with both, if necessary, and yields prostacyclin isomers and analogs. A particularly useful prostacyclin sulfur analog, 6,9α-thiaprostacyclin ester can be obtained by reducing a 6,9α-sulfoxaprostacyclin ester--obtained as described supra--with a reducing agent such as trimethylsilyliodide.

[2] = system: human and rabbit citrated platelet-rich plasma; test: platelet aggregation, citrated platelet-rich plasma in a chronolog aggregometer (agonistic and antagonistic activity vs ADP); assay type: cell-based; details: 20 mM and 2 μM (so in the source), inhibition of aggregation by 2 μM ADP, or antagonism of 5 mM prostacyclin
Protocol: Effects of prostacyclin analogs on platelet aggregation was evaluated using human and rabbit citrated platelet-rich plasma in a chronolog aggregometer at […]. Each of the analogs was tested at two concentrations (20 mM and 2 μM) for agonistic activity (inhibition of aggregation induced by 2 μM ADP) and antagonistic activity (prevention of the inhibition of ADP-induced aggregation by 5 mM prostacyclin).

cat coronary artery = test: isolated perfused cat coronary artery, perfusion pressure; details: isolated perfused cat right coronary artery, 37° C., change in perfusion pressure
Protocol: Effects of prostacyclin analogs on isolated perfused cat coronary arteries were measured as follows.
Cats of either sex (2.5-3.5 kg) were anesthetized with sodium pentobarbital (30 mg/kg) given intravenously. Hearts were rapidly excised and placed in oxygenated (95% O2 +5% CO2) ice-cold Krebs-Henseleit (K-H) solution of the following millimolar composition: NaCl, 118; KCl, 4.75; CaCl2.H2 O, 2.54; KH2 PO4, 1.19; MgSO4.7H2 O, 1.19; NaHCO3, 12.5; glucose, 10.00. A 20-gauge stainless steel cannula was inserted into the right coronary artery via the coronary ostium. Distal to the cannula, approximately 1 cm of coronary artery was dissected free of surrounding tissue. The section of right coronary artery with the cannula in place was excised from the heart and immediately transferred to a constant flow perfusion apparatus.
The perfusion apparatus consists of a reservoir containing 20 ml of warm (37° C.) oxygenated (95% O2 +5% CO2) K-H solution which bathes the coronary artery and serves as recirculating perfusate. An increase in perfusion pressure indicates vasoconstriction, whereas a decrease in perfusion pressure signifies vasodilation. Following an initial 1 hr. equilibrium period, vascular responsiveness was established by adding 25 mM KCl. After washing with fresh K-H solution for 20-30 mins., the preparation achieved a relatively constant low basal tone. Basal perfusion pressure averaged 50±2.5 mm Hg. Fresh K-H dilutions of stock prostacyclin analog concentrations were added to the perfusate reservoir in 0.1-0.2 ml volumes. Changes in perfusion pressure in response to prostacyclin analog addition generally plateaus within 5 mins. of administration.

[3] = stability of the sodium salt in solution (preparative examples); assay type: physicochemical; details: sodium salt after hydrolysis with NaOH in 90% ethanol
Protocol: Acidification of this compound in aqueous solutions leads to the corresponding acid which can be extracted with ether and purified chromatographically.
The critical intermediate for this synthesis is 11,15-diol, 5-phenylseleno,6,9α-thiaprostacyclin methyl ester IV (R^1 =--CH3, R^2 =R^3 =H, Z=--S--). The preparation of this intermediate is described in Example 10a. When this intermediate was oxidized with 3.3 equivalents of m-chloroperbenzoic acid in methylene chloride -78°→20° C. for 24 hours, the 6,9α-sulfoprostacyclin methyl ester IX was produced in 85% yield (IX, R^1 =--CH3, R^2 =R^3 =H, n=2). It was isolated by prep layer chromatography and hydrolyzed with NaOH in 90% ethanol at 25° C. to afford the corresponding sodium salt IX.

[4] = solubility (analytical data of methyl ester); assay type: physicochemical
[5] = background statement; cited from earlier work

Compound | t 1/2 saline [1] | half-life [1] | Biological Activity: Platelet Aggregation [2] | Biological Activity: Cat Coronary Artery (cat coronary artery) | further results
6,9-sulfo-4(E)isoprostacyclin, 6αisomer | > 24 h |  | Inhibitor | Constrictor(M) | 
6,9-sulfo-4(E)isoprostacyclin, 6βisomer | > 24 h |  | Antagonist | Constrictor | 
CCCCCC(O)/C=C/C1C(O)CC2OC(/C=C/CCC(=O)O)CC21 (stereo not drawn) [4(E)-9-deoxy-6,9α-epoxy-Δ^4 -isoprostacyclin(6α)] | > 3 h |  | Antagonist | Constrictor | 
CCCCC[C@H](O)/C=C/[C@@H]1[C@H]2C/C(=C/CCCC(=O)O)S(=O)(=O)[C@H]2C[C@H]1O [5(Z)-6,9α-sulfoprostacyclin sodium salt] |  |  |  |  | stability of sodium salt in solution [3]: quantitatively stable in aqueous solution
CCCCC[C@H](O)/C=C/[C@@H]1[C@H]2C/C(=C/CCCC(=O)O)[S+]([O-])[C@H]2C[C@H]1O (stereo partly drawn) [5(Z)-6,9α-sulfoxaprostacyclin sodium salt] |  |  |  |  | stability of sodium salt in solution [3]: stable solution
CCCCC[C@H](O)/C=C/[C@@H]1[C@H]2CC(/C=C/CCC(=O)OC)S(=O)(=O)[C@H]2C[C@H]1O (stereo partly shown) [6,9-sulfo-4(E) is oprostacyclin methyl ester] |  |  |  |  | solubility [4]: CH2 Cl2 and common organic solvents
CCCCC[C@H](O)/C=C/[C@@H]1[C@H]2C/C(=C/CCCC(=O)O)S[C@H]2C[C@H]1O [6,9α-Thia-5(Z)prostacyclin] |  | > 3 h | Very little activity, if any | Very little activity, if any | 
CCCCC[C@H](O)/C=C/[C@@H]1[C@H]2C/C(=C/CCCC(=O)OC)S(=O)(=O)[C@H]2C[C@H]1O [6,9α-sulfoprostacyclin methyl ester] |  |  |  |  | solubility [4]: common organic solvents
CCCCC[C@H](O)/C=C/[C@@H]1[C@H]2C/C(=C/CCCC(=O)O)O[C@H]2C[C@H]1O [Natural Prostacyclin, 6,9α-oxido-11α,15α-dihydroxyprosta-(Z)5, (E)13-dienoic acid, reference compound] |  |  | Inhibitor(P) | Dilator(P) | biological half-life [5]: 2 minutes

Second part, led by results:

t 1/2 saline [1] | half-life [1] | Compound | Biological Activity: Platelet Aggregation [2] | Biological Activity: Cat Coronary Artery (cat coronary artery) | further results
> 3 h |  | CCCCCC(O)/C=C/C1C(O)CC2OC(/C=C/CCC(=O)O)CC21 (stereo not drawn) [4(E)-9-deoxy-6,9α-epoxy-Δ^4 -isoprostacyclin(6β)] | Inhibitor(P) | Constrictor(P) | 
 | > 24 h | CCCCC[C@H](O)/C=C/[C@@H]1[C@H]2C/C(=C/CCCC(=O)O)S(=O)(=O)[C@H]2C[C@H]1O [6,9-sulfo-5(Z)prostacyclin] | Antagonist(M) | Constrictor(M) | 
 | > 24 h | CCCCC[C@H](O)/C=C/[C@@H]1[C@H]2C/C(=C\CCCC(=O)O)[S+]([O-])[C@H]2C[C@H]1O (stereo partly shown) [6,9-sulfoxa-5(E)prostacyclin] | Little activity | Little activity | 
 | > 24 h | CCCCC[C@H](O)/C=C/[C@@H]1[C@H]2C/C(=C/CCCC(=O)O)[S+]([O-])[C@H]2C[C@H]1O (stereo partly shown) [6,9-sulfoxa-5(Z)prostacyclin] | Little activity | Little activity | 
